Measured values reported in article PMC8854621, “Functionally selective signaling and broad metabolic benefits by novel insulin receptor partial agonists” (Nature Communications, 2022).
Several values for one entry are separate records, joined by “and”; a condition that tells them apart may be missing. Equal values may be shown once. Read-outs that look alike come from different tables or passages of the source.

Columns and labels:
[1] = system: SAOS2/B10 cells; assay: Cellular proliferation, EdU incorporation (Click-it EdU); assay type: cell-based
Excerpt: 3. […]
Ethynyl-2′-deoxyuridine; ThermoFisher Scientific) assay. […]

[2] = system: AAV-LIRKO and WT mice; assay: Glucose lowering in AAV-LIRKO versus WT mice; assay type: in vivo, mouse; conditions: glucose lowering efficacy; RHI 30, Levemir 24, IRPA-5 120, IRPA-6 60 nmol/kg
Procedure: Male C57BL/6 mice and Sprague-Dawley rats were obtained from Taconic Farms (Germantown, NY, USA). AAV-LIRKO mice were developed by AAV-Cre injection into conditional IR KO mice (B6.129S4(FVB)-Insr^tm1Khn/J from Jackson Laboratory; Fig. S3). To generate streptozotocin (STZ)-induced diabetic mouse, male C57BL/6 mice were treated with a single intraperitoneal (i.p.; 100 mg/kg) injection of STZ (Sigma Chemical, St. Louis, MO, USA).
6. Mouse models and related studies
LIRKO mouse model generation
Jackson Laboratory, #6955). Male mice at 8 weeks of age maintained on chow diet (Teklad 7002) were administered AAV-cre via tail vein injection as doses indicated on Fig. S4. Mice were studied 4 weeks following AAV injection for ITT or put on HFD (Research Diets, D12492) for 4 weeks before glucose lowering studies were executed.
IRPA studies in HFD-STZ mice
HFD-STZ mice were developed as previously described 40 and were groups based on their glucose ranges. Acute glucose lowering efficacy of IRPAs in healthy and HFD -STZ mice were evaluated upon administration of escalating doses of test molecules, which was expressed as area over the curve (AOC) relative to vehicle.
Intact, male Beagle dogs (2-8 years old) were either purchased from Marshall Bioresources or acquired from other in-house programs. […]

[3] = system: ApoE KO mice; assay: Aortic plaque in ApoE KO mice (Sudan IV staining, en face aorta); assay type: in vivo, mouse; conditions: Fig. 6h; one value per animal
Procedure: (§1) Fig. 6 Beneficial IRPA effects beyond glycemic control. Glucose, body weight and hepatic triglyceride (TG) lowering by IRPA alone or in combination with a GLP-1 analog in mouse studies (a–d). Glucose lowering acutely (a) or during chronic QD dosing (b; 2-h post dose on day 11) in diabetic mice. Body weight (c) and liver triglyceride (d) changes at the end of 14-day QD dosing. […] Data is presented as mean ± SD. N = 8. p value is calculated using one-way ANOVA with Tukey’s multiple comparisons test: b1 < 0.001 vs. vehicle, b2 < 0.001 and b3 = 0.002 for indicated comparisons; c1 = 0.008 and c2 = 0.0001 vs. vehicle, c3 < 0.0001 for indicated comparisons; d1 < 0.001 vs. vehicle. IRPA reduces aortic plaque in ApoE KO mice (e–h). There was no significant body weight or cholesterol change from baseline by RHI or IRPA-3 (e, g). […] Data is presented as mean ± SD. p value is calculated using one-way ANOVA with Tukey’s multiple comparisons test: f1 = 0.0034 and f2 = 0.035 vs. vehicle; h1 = 0.046 vs. vehicle. […] Source data are provided as a Source Data file. […]

[4] = system: differentiated mouse 3T3 L1 adipocytes; assay: [14C]-2-deoxyglucose uptake in differentiated mouse 3T3 L1 adipocytes; assay type: cell-based; conditions: four-parameter fit; read-out: 2DG uptake in 3T3 L1 adipocytes EC50
Procedure: and phosphatase inhibitors for 30 minutes. The lysates were applied to the modified MSD Elisa assays to measure phosphorylation of different tyrosine residues on insulin receptor. Briefly, lysates were added to custom MSD IR plates (MSD cat# N45CA-1). Phosphorylation of tyrosine on IR were measured using antibody against pY960 (rabbit mAb, Cell Applications #CB4378) or pY1345 (rabbit mAb 14A4, Cell Signaling #3026), respectively in combination with SULFO-tag anti rabbit antibody (MSD cat# R32AB). For pY1150, cell lysate was added to MSD high binding plate […]
Signaling #3024). The bound insulin receptor was detected using combination of rabbit anti-insulin receptor b (C-19, Santa Cruz sc-711) and SULFO-tag anti rabbit antibody.
3. IGF-1R binding, cellular proliferation in SaoS2 cells and 2-deoxyglucose (2DG) update in mouse
IGF-1R affinity of IRPAs was assessed in a whole cell binding assay using a cell line stably expressing […]
activities of IRPAs as measured by EdU incorporation to SAOS2/B10 cells using the Click-it EdU (5-Ethynyl-2′-deoxyuridine; ThermoFisher Scientific) assay. To assess IRPA function downstream of the signaling cascade, [14C]-2-deoxyglucose cellular uptake in the differentiated mouse 3T3 L1 adipocytes was measured using standard protocol (3). […]
measured (S4a). Mouse white adipose tissue pAkt levels (S4b) were quantified in the same manner as other tissues […]

[5] = system: ApoE KO mice; assay: Body weight in ApoE KO mice, 8 weeks s.c. pump; assay type: in vivo, mouse; conditions: Fig. 6e; one value per animal
Procedure: as §1

Which EC50 ([1]; geometric mean of all independent titrations, EdU incorporation, four-parameter fit, read-out: Cell Proliferation Assay Total Ave EC50) does the source give for “RHI: recombinant human insulin, purchased from commercial sources” here?
The EC50 was 6.53 nM.

And the EC50 ([1]; titration 1, read-out: Cell Proliferation Assay EC50-1)?
The EC50 was 12.9 nM.

What about the EC50 ([1]; titration 2, read-out: Cell Proliferation Assay EC50-2) of the same substance?
The EC50 was 3.1 nM.

And the EC50 ([1]; titration 3, read-out: Cell Proliferation Assay EC50-3)?
The EC50 was 9.5 nM.

And the EC50 ([1]; titration 4, read-out: Cell Proliferation Assay EC50-4)?
Its EC50 is 9.5 nM.

What about the EC50 ([1]; titration 5, read-out: Cell Proliferation Assay EC50-5) of the same substance?
The EC50 was 3.3 nM.

What about the “AUC reduction in AAV-LIRKO mice compared to WT mice” value [2] of the same substance?
The value was 30%.

What about the “Aortic plaque area (% to total surface)” value [3] of the same substance?
The value was 33.7% and 21.2% and 20.3% and 22.7% and 23.8% and 26.1% and 21.1% and 26.6% and 22.5% and 26.7% and 29.0% and 23.3%.

And the EC50 [4]?
Its EC50 is 6.6 nM.

What about the “Body ewight change (%) from pretreatment” value [5] of the same substance?
Its value is 13.2% and 5.48% and 7.48% and 4.52% and 8.31% and 18.95% and 5.38% and -7.57% and 17.6% and 5.39% and 19.87% and 3% and 15.56%.
